Results published in patent EP4745135A1 (Gluetacs Therapeutics (Shanghai) Co., Ltd., priority 2023, dated 2025).

Assays:
[1] = target: T1, human Cereblon WT GST-tagged protein (Homo sapiens, UniProt Q96SW2); assay: CRBN-binding affinity, HTRF (CEREBLON BINDING kit); conditions: for inhibition at 0.5 µM: read-out: Inhibition Rate at 0.5 µM (%); for inhibition at 2 µM: read-out: Inhibition Rate at 2 µM (%)
T1 construct: purchased CISBIO 64BDCRBNPEH

[2] = target: T2, IKZF2 (Homo sapiens, UniProt Q96SW2+Q9UKS7); assay: Western blot, degradation of substrate protein in hPBMCs; format: cell-based
T2 construct: effects of the compounds of the present disclosure on the expression of target proteins in cells; endogenous in cells; host or cells: human PBMCs (Milecell Biotechnologies)
T2 sequence (Q9UKS7 whole entry): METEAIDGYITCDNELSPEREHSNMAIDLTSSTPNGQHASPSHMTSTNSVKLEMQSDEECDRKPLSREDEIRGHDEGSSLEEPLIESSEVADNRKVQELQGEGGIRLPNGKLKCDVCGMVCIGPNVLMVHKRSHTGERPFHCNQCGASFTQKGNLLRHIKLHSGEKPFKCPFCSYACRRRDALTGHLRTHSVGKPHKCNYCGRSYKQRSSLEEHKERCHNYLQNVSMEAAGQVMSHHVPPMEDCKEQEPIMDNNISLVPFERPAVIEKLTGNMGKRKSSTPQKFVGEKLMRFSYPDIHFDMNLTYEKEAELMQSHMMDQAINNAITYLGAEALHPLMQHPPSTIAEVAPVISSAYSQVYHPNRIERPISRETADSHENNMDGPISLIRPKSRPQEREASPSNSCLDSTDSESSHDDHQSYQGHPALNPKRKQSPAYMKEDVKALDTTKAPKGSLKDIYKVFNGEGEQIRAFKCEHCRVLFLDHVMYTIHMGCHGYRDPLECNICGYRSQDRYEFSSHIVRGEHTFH
T2 sequence (Q96SW2 whole entry): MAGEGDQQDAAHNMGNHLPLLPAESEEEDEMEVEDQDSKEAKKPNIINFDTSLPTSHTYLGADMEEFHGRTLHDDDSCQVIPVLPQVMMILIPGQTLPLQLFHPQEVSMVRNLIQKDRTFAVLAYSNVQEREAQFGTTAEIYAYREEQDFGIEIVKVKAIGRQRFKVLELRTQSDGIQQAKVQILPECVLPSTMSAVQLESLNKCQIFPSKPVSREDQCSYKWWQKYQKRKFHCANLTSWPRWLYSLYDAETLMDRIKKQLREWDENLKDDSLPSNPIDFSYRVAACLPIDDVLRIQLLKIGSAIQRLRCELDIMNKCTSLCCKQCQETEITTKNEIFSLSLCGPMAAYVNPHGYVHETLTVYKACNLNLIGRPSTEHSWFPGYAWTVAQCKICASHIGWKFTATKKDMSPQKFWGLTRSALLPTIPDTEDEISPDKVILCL
T2 sequence (Q16531 whole entry partner): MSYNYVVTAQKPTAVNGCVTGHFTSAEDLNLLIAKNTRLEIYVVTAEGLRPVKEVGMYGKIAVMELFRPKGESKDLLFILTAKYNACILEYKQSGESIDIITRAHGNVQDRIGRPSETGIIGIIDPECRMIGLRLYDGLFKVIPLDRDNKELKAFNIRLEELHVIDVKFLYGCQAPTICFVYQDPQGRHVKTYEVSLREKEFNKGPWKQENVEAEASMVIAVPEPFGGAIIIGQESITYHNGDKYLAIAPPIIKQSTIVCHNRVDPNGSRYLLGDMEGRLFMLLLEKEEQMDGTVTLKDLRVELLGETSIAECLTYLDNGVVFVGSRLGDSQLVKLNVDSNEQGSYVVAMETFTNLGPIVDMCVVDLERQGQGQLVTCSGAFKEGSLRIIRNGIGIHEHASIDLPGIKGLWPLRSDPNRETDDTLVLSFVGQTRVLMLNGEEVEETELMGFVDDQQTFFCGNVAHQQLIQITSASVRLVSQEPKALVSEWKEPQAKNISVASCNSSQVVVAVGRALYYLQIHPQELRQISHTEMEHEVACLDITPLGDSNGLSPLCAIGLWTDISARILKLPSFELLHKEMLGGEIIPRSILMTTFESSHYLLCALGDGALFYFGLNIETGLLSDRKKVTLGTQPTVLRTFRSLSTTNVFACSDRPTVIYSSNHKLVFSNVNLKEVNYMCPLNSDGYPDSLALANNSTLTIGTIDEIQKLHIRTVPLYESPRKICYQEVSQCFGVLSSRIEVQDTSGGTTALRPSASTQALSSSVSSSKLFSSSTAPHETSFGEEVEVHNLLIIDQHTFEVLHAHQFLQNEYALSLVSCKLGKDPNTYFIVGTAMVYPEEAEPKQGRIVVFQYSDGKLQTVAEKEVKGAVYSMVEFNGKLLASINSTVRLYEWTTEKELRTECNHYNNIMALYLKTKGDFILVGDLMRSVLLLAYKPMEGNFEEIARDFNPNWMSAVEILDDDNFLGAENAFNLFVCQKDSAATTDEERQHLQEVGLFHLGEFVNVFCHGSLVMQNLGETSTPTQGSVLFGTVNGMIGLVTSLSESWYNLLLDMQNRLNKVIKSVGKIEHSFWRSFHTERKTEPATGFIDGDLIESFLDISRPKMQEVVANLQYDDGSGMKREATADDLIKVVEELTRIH

[3] = target: T3, WEE1 (Homo sapiens, UniProt P30291+Q96SW2); assay: as above; format: cell-based
T3 construct: effects of the compounds of the present disclosure on the expression of target proteins in cells; endogenous in cells; host or cells: human PBMCs (Milecell Biotechnologies)
T3 sequence (P30291 whole entry): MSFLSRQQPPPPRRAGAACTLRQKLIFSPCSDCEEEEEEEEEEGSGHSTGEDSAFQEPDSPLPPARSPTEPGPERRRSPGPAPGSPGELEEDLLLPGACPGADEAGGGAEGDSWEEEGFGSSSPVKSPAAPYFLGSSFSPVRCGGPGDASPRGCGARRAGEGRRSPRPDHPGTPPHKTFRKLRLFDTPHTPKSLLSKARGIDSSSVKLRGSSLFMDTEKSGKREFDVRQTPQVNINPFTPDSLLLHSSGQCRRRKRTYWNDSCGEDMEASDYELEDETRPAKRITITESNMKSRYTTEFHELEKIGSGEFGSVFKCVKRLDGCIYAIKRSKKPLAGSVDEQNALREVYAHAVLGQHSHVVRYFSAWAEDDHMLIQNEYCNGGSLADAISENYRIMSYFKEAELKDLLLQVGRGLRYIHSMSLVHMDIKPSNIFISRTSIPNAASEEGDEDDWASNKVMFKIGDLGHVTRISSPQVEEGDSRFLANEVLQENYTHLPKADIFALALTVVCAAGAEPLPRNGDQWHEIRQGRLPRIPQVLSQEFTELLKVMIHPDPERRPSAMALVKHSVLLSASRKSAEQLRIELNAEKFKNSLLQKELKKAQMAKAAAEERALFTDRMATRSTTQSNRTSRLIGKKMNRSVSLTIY
T3 sequence (Q96SW2 whole entry): as the sequence (Q96SW2 whole entry) above
T3 sequence (Q16531 whole entry partner): as the sequence (Q16531 whole entry partner) above

[4] = target: T4, IKZF3 (Homo sapiens, UniProt Q96SW2+Q9UKT9); assay: as above; format: cell-based
T4 construct: effects of the compounds of the present disclosure on the expression of target proteins in cells; endogenous in cells; host or cells: human PBMCs (Milecell Biotechnologies)
T4 sequence (Q9UKT9 whole entry): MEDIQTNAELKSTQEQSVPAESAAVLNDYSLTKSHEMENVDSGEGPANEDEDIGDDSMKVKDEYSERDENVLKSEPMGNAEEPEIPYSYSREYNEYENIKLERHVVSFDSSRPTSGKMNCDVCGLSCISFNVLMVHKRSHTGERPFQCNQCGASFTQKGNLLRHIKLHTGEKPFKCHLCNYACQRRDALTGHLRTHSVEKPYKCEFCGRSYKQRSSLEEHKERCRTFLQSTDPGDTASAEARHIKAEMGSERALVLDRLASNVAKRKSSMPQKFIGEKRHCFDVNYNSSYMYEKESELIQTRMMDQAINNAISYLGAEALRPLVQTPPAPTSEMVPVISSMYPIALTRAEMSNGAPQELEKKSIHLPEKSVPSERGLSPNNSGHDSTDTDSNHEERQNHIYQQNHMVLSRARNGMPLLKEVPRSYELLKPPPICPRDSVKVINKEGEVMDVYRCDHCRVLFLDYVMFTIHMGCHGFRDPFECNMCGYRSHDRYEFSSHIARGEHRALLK
T4 sequence (Q96SW2 whole entry): as the sequence (Q96SW2 whole entry) above
T4 sequence (Q16531 whole entry partner): as the sequence (Q16531 whole entry partner) above

[5] = target: T5, IKZF1 (Homo sapiens, UniProt Q13422+Q96SW2); assay: as above; format: cell-based
T5 construct: effects of the compounds of the present disclosure on the expression of target proteins in cells; endogenous in cells; host or cells: human PBMCs (Milecell Biotechnologies)
T5 sequence (Q13422 whole entry): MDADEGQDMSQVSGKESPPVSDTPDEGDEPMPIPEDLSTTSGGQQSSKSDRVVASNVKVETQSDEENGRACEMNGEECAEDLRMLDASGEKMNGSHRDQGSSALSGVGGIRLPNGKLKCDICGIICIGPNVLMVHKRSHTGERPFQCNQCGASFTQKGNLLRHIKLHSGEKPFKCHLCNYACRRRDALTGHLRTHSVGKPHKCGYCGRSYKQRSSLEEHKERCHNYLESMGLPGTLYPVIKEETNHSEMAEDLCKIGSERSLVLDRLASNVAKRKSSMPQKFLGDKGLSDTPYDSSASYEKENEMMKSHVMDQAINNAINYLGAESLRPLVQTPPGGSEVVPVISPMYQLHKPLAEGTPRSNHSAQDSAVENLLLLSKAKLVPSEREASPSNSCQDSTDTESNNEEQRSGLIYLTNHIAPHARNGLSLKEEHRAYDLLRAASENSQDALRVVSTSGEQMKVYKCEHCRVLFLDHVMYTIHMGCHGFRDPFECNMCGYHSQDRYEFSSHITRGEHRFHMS
T5 sequence (Q96SW2 whole entry): as the sequence (Q96SW2 whole entry) above
T5 sequence (Q16531 whole entry partner): as the sequence (Q16531 whole entry partner) above

[6] = target: T6, CK1α (Homo sapiens, UniProt P48729+Q96SW2); assay: as above; format: cell-based
T6 construct: effects of the compounds of the present disclosure on the expression of target proteins in cells; endogenous in cells; host or cells: human PBMCs (Milecell Biotechnologies)
T6 sequence (P48729 whole entry): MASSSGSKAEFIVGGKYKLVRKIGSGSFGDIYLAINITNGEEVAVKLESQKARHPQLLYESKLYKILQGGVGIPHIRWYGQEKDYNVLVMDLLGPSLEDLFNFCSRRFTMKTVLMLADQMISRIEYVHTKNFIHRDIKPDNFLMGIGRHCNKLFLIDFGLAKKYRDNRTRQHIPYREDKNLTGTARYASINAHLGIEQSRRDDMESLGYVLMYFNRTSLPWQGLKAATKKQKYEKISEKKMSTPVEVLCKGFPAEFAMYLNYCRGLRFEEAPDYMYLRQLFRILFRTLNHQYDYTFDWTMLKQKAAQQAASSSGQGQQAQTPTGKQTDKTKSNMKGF
T6 sequence (Q96SW2 whole entry): as the sequence (Q96SW2 whole entry) above
T6 sequence (Q16531 whole entry partner): as the sequence (Q16531 whole entry partner) above

[7] = tested on: GSPT1; assay: as above; format: cell-based, Human
[8] = Western blot, 24 hours of compound treatment, compounds tested at 50 nM and 500 nM (concentration for the table not stated)
[9] = 24 hours treatment, compounds at 50 nM and 500 nM (concentration behind the class not stated)

T1 sequence (Q96SW2 whole entry): as the sequence (Q96SW2 whole entry) above

inhibition at 0.5 µM [1] [%] | inhibition at 2 µM [1] [%] | Compound | IKZF2 substrate protein remaining % [2, 8] | Wee1 substrate protein remaining % [3, 8] | IKZF3 substrate protein remaining % [4, 8] | IKZF 1 substrate protein remaining % [5, 8] | CK1α substrate protein remaining % [6, 8] | GSPT1 substrate protein remaining % [7, 8] | IKZF2 substrate protein remaining % [2, 9] | Wee1 substrate protein remaining % [3, 9] | IKZF3 substrate protein remaining % [4, 9] | IKZF 1 substrate protein remaining % [5, 9] | CK1α substrate protein remaining % [6, 9] | GSPT1 substrate protein remaining % [7, 9]
40 to 53 | 60 to 80 | Cc1ccc(Cl)cc1N1CCN(Cc2cccc3c2CN(C2CCC(=O)NC2=O)C3=S)CC1 (stereo not drawn) [GT-08505, 3-(4-((4-(5-chloro-2-methylphenyl)piperazin-1-yl)methyl)-1-thioxoisoindolin-2-yl)piperidine-2,6-dione] | B (80%< substrate protein remaining %≤ 100%) | A (0% ≤ substrate protein remaining % ≤ 80%) | A (0% ≤ substrate protein remaining % ≤ 80%) | B (80%< substrate protein remaining %≤ 100%) | B (80%< substrate protein remaining %≤ 100%) | B (80%< substrate protein remaining %≤ 100%) | – | – | – | – | – | –
53 to 60 | 80 to 100 | Cc1nc(C2=CCN(Cc3ccc4c(c3)CN(C3CCC(=O)NC3=O)C4=S)CC2)c2c3c(sc2n1)CCC3 (stereo not drawn) [GT-09326, 3-(5-((4-(2-methyl-6,7-dihydro-5H-cyclopenta[4,5]thieno[2,3-d]pyrimidin-4-yl)-3,6-dihydropyridin-1(2H)-yl)methyl)-1-thioxoisoindolin-2-yl)piperidine-2,6-dione] | – | – | – | – | – | – | B (80%< substrate protein remaining %≤ 100%) | A (0% ≤ substrate protein remaining % ≤ 80%) | B (80%< substrate protein remaining %≤ 100%) | B (80%< substrate protein remaining %≤ 100%) | B (80%< substrate protein remaining %≤ 100%) | A (0% ≤ substrate protein remaining % ≤ 80%)
60 to 80 | 80 to 100 | O=C1CCC(N2Cc3c(CN4CCN(c5cccc(Cl)n5)CC4)cccc3C2=S)C(=O)N1 (stereo not drawn) [GT-08693, 3-(4-((4-(6-chloropyridin-2-yl)piperazin-1-yl)methyl)-1-thioxoisoindolin-2-yl)piperidine-2,6-dione] | B (80%< substrate protein remaining %≤ 100%) | A (0% ≤ substrate protein remaining % ≤ 80%) | B (80%< substrate protein remaining %≤ 100%) | B (80%< substrate protein remaining %≤ 100%) | B (80%< substrate protein remaining %≤ 100%) | B (80%< substrate protein remaining %≤ 100%) | – | – | – | – | – | –
60 to 80 | 80 to 100 | O=C1CCC(N2Cc3c(CN4CC=C(c5ncnc6sc7c(c56)CCC7)CC4)cccc3C2=S)C(=O)N1 (stereo not drawn) [GT-08963, 3-(4-((4-(6,7-dihydro-5H-cyclopenta[4,5]thieno[2,3-d]pyrimidin-4-yl)-3,6-dihydropyridin-1(2H)-yl)methyl)-1-thioxoisoindolin-2-yl)piperidine-2,6-dione] | – | – | – | – | – | – | B (80%< substrate protein remaining %≤ 100%) | A (0% ≤ substrate protein remaining % ≤ 80%) | B (80%< substrate protein remaining %≤ 100%) | B (80%< substrate protein remaining %≤ 100%) | B (80%< substrate protein remaining %≤ 100%) | B (80%< substrate protein remaining %≤ 100%)
60 to 80 | 80 to 100 | Cc1ccc(N2CCN(Cc3cccc4c3CN(C3CCC(=O)NC3=O)C4=S)CC2)s1 (stereo not drawn) [GT-08305, 3-(4-((4-(5-methylthiophen-2-yl)piperazin-1-yl)methyl)-1-thioxoisoindolin-2-yl)piperidine-2,6-dione] | – | – | – | – | – | – | A (0% ≤ substrate protein remaining % ≤ 80%) | B (80%< substrate protein remaining %≤ 100%) | B (80%< substrate protein remaining %≤ 100%) | B (80%< substrate protein remaining %≤ 100%) | B (80%< substrate protein remaining %≤ 100%) | B (80%< substrate protein remaining %≤ 100%)
60 to 80 | 80 to 100 | O=C1CCC(N2Cc3c(CN4CCN(c5ccc(F)c(F)c5)CC4)cccc3C2=S)C(=O)N1 (stereo not drawn) [GT-08631, 3-(4-((4-(3,4-difluorophenyl)piperazin-1-yl)methyl)-1-thioxoisoindolin-2-yl)piperidine-2,6-dione] | B (80%< substrate protein remaining %≤ 100%) | A (0% ≤ substrate protein remaining % ≤ 80%) | B (80%< substrate protein remaining %≤ 100%) | B (80%< substrate protein remaining %≤ 100%) | B (80%< substrate protein remaining %≤ 100%) | B (80%< substrate protein remaining %≤ 100%) | – | – | – | – | – | –
60 to 80 | 80 to 100 | O=C1CCC(N2Cc3cc(CN4CCN(c5ccnc(Br)c5F)CC4)ccc3C2=S)C(=O)N1 (stereo not drawn) [GT-09241, 3-(5-((4-(2-bromo-3-fluoropyridin-4-yl)piperazin-1-yl)methyl)-1-thioxoisoindolin-2-yl)piperidine-2,6-dione] | – | – | – | – | – | – | B (80%< substrate protein remaining %≤ 100%) | B (80%< substrate protein remaining %≤ 100%) | B (80%< substrate protein remaining %≤ 100%) | B (80%< substrate protein remaining %≤ 100%) | B (80%< substrate protein remaining %≤ 100%) | A (0% ≤ substrate protein remaining % ≤ 80%)
60 to 80 | 80 to 100 | Cc1csc2ncnc(N3CCN(Cc4cccc5c4CN(C4CCC(=O)NC4=O)C5=S)CC3)c12 (stereo not drawn) [GT-08913, 3-(4-((4-(5-methylthieno[2,3-d]pyrimidin-4-yl)piperazin-1-yl)methyl)-1-thioxoisoindolin-2-yl)piperidine-2,6-dione] | – | – | – | – | – | – | B (80%< substrate protein remaining %≤ 100%) | A (0% ≤ substrate protein remaining % ≤ 80%) | B (80%< substrate protein remaining %≤ 100%) | B (80%< substrate protein remaining %≤ 100%) | B (80%< substrate protein remaining %≤ 100%) | B (80%< substrate protein remaining %≤ 100%)
30 to 40 | 53 to 60 | O=C1CCC(N2Cc3c(CN4CCC(c5cccc(F)c5F)CC4)cccc3C2=S)C(=O)N1 (stereo not drawn) [GT-08322, 3-(4-((4-(2,3-difluorophenyl)piperidin-1-yl)methyl)-1-thioxoisoindolin-2-yl)piperidine-2,6-dione] | – | – | – | – | – | – | A (0% ≤ substrate protein remaining % ≤ 80%) | A (0% ≤ substrate protein remaining % ≤ 80%) | B (80%< substrate protein remaining %≤ 100%) | B (80%< substrate protein remaining %≤ 100%) | A (0% ≤ substrate protein remaining % ≤ 80%) | A (0% ≤ substrate protein remaining % ≤ 80%)
53 to 60 | 80 to 100 | O=C1CCC(N2Cc3cc(CN4CC5CCC4CN5C(c4ccccc4)c4ccccc4)ccc3C2=S)C(=O)N1 (stereo not drawn) [GT-07847, 3-(5-((5-benzhydryl-2,5-diazabicyclo[2.2.2]octan-2-yl)methyl)-1-thioxoisoindolin-2-yl)piperidine-2,6-dione] | A (0% ≤ substrate protein remaining % ≤ 80%) | A (0% ≤ substrate protein remaining % ≤ 80%) | A (0% ≤ substrate protein remaining % ≤ 80%) | B (80%< substrate protein remaining %≤ 100%) | B (80%< substrate protein remaining %≤ 100%) | A (0% ≤ substrate protein remaining % ≤ 80%) | – | – | – | – | – | –

Compound | inhibition at 0.5 µM [1] [%] | inhibition at 2 µM [1] [%] | IKZF2 substrate protein remaining % [2, 8] | Wee1 substrate protein remaining % [3, 8] | IKZF3 substrate protein remaining % [4, 8] | IKZF 1 substrate protein remaining % [5, 8] | CK1α substrate protein remaining % [6, 8] | GSPT1 substrate protein remaining % [7, 8] | IKZF2 substrate protein remaining % [2, 9] | Wee1 substrate protein remaining % [3, 9] | IKZF3 substrate protein remaining % [4, 9] | IKZF 1 substrate protein remaining % [5, 9] | CK1α substrate protein remaining % [6, 9] | GSPT1 substrate protein remaining % [7, 9]
Cn1cc(C2CCN(Cc3cccc4c3CN(C3CCC(=O)NC3=O)C4=S)CC2)c2ccc(F)cc21 (stereo not drawn) [GT-08844, 3-(4-((4-(6-fluoro-1-methyl-1H-indol-3-yl)piperidin-1-yl)methyl)-1-thioxoisoindolin-2-yl)piperidine-2,6-dione] | 40 to 53 | 60 to 80 | B (80%< substrate protein remaining %≤ 100%) | A (0% ≤ substrate protein remaining % ≤ 80%) | B (80%< substrate protein remaining %≤ 100%) | B (80%< substrate protein remaining %≤ 100%) | B (80%< substrate protein remaining %≤ 100%) | B (80%< substrate protein remaining %≤ 100%) | – | – | – | – | – | –
O=C1CCC(N2Cc3c(CN4CC=C(c5ccsc5)CC4)cccc3C2=S)C(=O)N1 (stereo not drawn) [GT-08300, 3-(4-((4-(thiophen-3-yl)-3,6-dihydropyridin-1(2H)-yl)methyl)-1-thioxoisoindolin-2-yl)piperidine-2,6-dione] | 40 to 53 | 60 to 80 | A (0% ≤ substrate protein remaining % ≤ 80%) | B (80%< substrate protein remaining %≤ 100%) | B (80%< substrate protein remaining %≤ 100%) | B (80%< substrate protein remaining %≤ 100%) | B (80%< substrate protein remaining %≤ 100%) | B (80%< substrate protein remaining %≤ 100%) | – | – | – | – | – | –
